{"source": "patent US12351587B2", "about": "“Bicyclic compound as RIP-1 kinase inhibitor and application thereof” (MEDSHINE DISCOVERY INC., priority 2019, dated 2025)", "key": {"[1]": {"assay": "Plasma protein binding rate (PPB), rat plasma", "type": "in vitro ADME, SD rats", "details": "2 μM, dialysis 4 hours 37° C.", "experimental": "796 μL of bank plasma from humans, SD rats and CD-1 mice (plasma purchased from BioreclamationIVT) were weighed, and the assay compound working solution or warfarin working solution was added so that the final concentration of the assay compound and warfarin in the plasma sample was 2 μM. The samples were mixed thoroughly. The final concentration of DMSO in the organic phase was 0.5%, 50 μL of plasma samples of the assay compound and warfarin were pipetted to a sample receiving plate, and the corresponding volume of the corresponding blank plasma or buffer was added immediately, so that the final volume in each sample well was 100 μL, wherein the volume ratio of plasma:dialysis buffer was 1:1. Stop solution was then added to these samples. These samples were used as T0 samples for determination of recovery and stability. The plasma samples of the assay compound and warfarin were added to the dosing end of each dialysis well, and blank dialysis buffer was added to the corresponding receiving end of the dialysis well. […] All samples were subjected to protein precipitation, and then analyzed by LC/MS/MS. Unbound rate (% Unbound), bound rate (% Bound), and recovery rate (% Recovery) of the compound were calculated using the following formulae: % Unbound=100*FC/TC, % Bond=100−% Unbound, and % Recovery=100*[…]/T0, […]"}, "[2]": {"assay": "In vitro Caco-2 cell permeability assay", "type": "in vitro ADME", "details": "human, pH 7.4, Caco-2, 2 μM", "experimental": "MEM (minimum essential medium) supplemented with 2 mM L-glutamine, 10% Fetal Bovine Serum (FBS), 100 U/mL penicillin-G and 100 μg/mL streptomycin was used for cell culture. The conditions for cell culture were 37±1° C., 5% CO2 and saturated humidity. When cells were grown to 80-90% confluency, trypsin (0.05%, w/v)/EDTA (0.02% w/v) digestion solution was added to digest the cells for seeding. The cells were seeded in BD Falcon's Transwell-96-well plate at a seeding density of 1×10^5 cells/cm^2. The cells were cultured in a carbon dioxide incubator for 22 days and then used for transport assay. […]\nIn this assay, liquid chromatography tandem mass spectrometry (LC/MS/MS) was used to semi-quantitatively analyze the peak area ratio of the assay compound and the control substances fenoterol, propranolol and digoxin to the internal standard in the starting solution, the receiving solution, and the supernatant of the dosing well. […]\nApparent permeability coefficient (Papp, cm/s), efflux rate and recovery rate were calculated using the following formulae.\nThe apparent permeability coefficient (Papp, cm/s) was calculated using the following formula: Papp=(dCr/dt)×Vr/(A×C0) […]\nThe efflux rate was calculated using the following formula: Efflux rate=Papp(BA)/Papp(AB) The recovery rate was calculated using the following formula: % recovery rate=100×[(Vr×Cr)+(Vd×Cd)]/(Vd×C0) […]"}, "[3]": {"target": "T1, RIP1 (Homo sapiens, UniProt Q13546)", "T1 construct": "purchased Eurofins Pharma Discovery Service", "T1 sequence (Q13546 1-671)": "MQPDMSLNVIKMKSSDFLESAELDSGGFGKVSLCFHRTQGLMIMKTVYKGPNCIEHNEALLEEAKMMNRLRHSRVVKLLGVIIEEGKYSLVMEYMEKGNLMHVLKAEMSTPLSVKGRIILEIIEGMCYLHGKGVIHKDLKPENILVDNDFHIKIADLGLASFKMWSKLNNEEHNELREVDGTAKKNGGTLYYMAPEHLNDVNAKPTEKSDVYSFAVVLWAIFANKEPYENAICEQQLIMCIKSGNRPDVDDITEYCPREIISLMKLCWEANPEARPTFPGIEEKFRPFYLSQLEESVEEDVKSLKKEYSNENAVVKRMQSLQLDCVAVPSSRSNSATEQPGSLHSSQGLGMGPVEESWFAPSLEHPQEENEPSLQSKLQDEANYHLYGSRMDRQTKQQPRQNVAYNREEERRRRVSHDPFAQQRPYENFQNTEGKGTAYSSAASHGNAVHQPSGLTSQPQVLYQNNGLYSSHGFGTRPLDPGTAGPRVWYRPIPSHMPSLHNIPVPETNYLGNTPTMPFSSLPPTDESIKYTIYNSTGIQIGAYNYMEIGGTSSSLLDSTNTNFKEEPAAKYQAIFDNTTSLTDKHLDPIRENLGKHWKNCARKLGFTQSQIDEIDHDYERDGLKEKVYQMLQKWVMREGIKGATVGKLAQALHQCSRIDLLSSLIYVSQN", "assay": "Kinase selectivity assay (Eurofins, 33P radiolabeled kinase activity): RIP1", "type": "biochemical", "details": "WX009 1 μM, ATP 10 μM, read-out: Inhibition rate", "experimental": "(§1) The purpose of this assay was to detect the in vitro inhibitory activity of WX009 on a variety of kinases. The kinases used in this assay included 413 kinases, and the activity detection method was provided by Eurofins Pharma Discovery Service A method of detecting ^33P radiolabeled kinase activity was used for the assay. The concentration of WX009 was 1 μM, and the concentration of ATP was 10 μM."}, "[4]": {"system": "All other kinases (411 of 413 kinases)", "assay": "Kinase selectivity assay (Eurofins, 33P radiolabeled kinase activity): all other kinases", "type": "biochemical", "details": "WX009 1 μM, ATP 10 μM", "experimental": "as §1"}}}
{"smiles": "CN1C(=S)[C@@H](NC(=O)c2ncn(Cc3ccccc3)n2)COc2cccnc21", "note": "[WX009]", "values": [{"measurement": "PPB_Unbound", "setting": "[1]", "value": 29.7, "unit": "%"}, {"measurement": "Papp at 120 min, 2 μM", "setting": "[2]; 120 minutes, pH 7.40, read-out: Apparent permeability coefficient", "value": 18.4, "unit": "×10⁻⁶ cm/s"}, {"measurement": "efflux ratio at 120 min, 2 μM", "setting": "[2]; Papp(BA)/Papp(AB), read-out: Efflux rate", "value": 0.75}, {"measurement": "inhibition at 1 µM", "setting": "[3]", "value": "> 80", "unit": "%"}, {"measurement": "Inhibition rate", "setting": "[4]", "value": "<50", "unit": "%"}]}
